PubChem BioAssay AID248 (DTP/NCI, 2004)
Values joined by “and” are separate entries in the source; they are usually repeats but may differ in a detail not shown here. Equal entries are not always repeated. Inconclusive results and toxic doses are left out.

System: L1210 leukemia ip in BDF1 mice, survival T/C
Experiment: NCI In Vivo Anticancer Drug Screen. Data for tumor model L1210 Leukemia (intraperitoneal) in B6D2F1 (BDF1) mice
Settings: endpoint: mean survival time, higher = longer survival
Procedure, shortened: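 Antitumor effect is assessed in tumor-bearing animals. Survival in the compound arm is compared with a vehicle-dosed control arm and expressed as their quotient.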

[1] = dose: 100.0 mg/kg/injection, schedule: Q01DX001 (ip), vehicle: Klucel (hydroxypropylcellulose) (HPC)
[2] = dose: 100.0 mg/kg/injection, schedule: Q01DX001 (ip), vehicle: saline
[3] = dose: 100.0 mg/kg/injection, schedule: Q01DX009 (ip), vehicle: Klucel (hydroxypropylcellulose) (HPC)
[4] = dose: 200.0 mg/kg/injection, schedule: Q01DX001 (ip), vehicle: Klucel (hydroxypropylcellulose) (HPC)
[5] = dose: 200.0 mg/kg/injection, schedule: Q01DX001 (ip), vehicle: saline
[6] = dose: 200.0 mg/kg/injection, schedule: Q01DX009 (ip), vehicle: Klucel (hydroxypropylcellulose) (HPC)
[7] = dose: 400.0 mg/kg/injection, schedule: Q01DX001 (ip), vehicle: Klucel (hydroxypropylcellulose) (HPC)
[8] = dose: 400.0 mg/kg/injection, schedule: Q01DX001 (ip), vehicle: saline
[9] = dose: 400.0 mg/kg/injection, schedule: Q01DX009 (ip), vehicle: Klucel (hydroxypropylcellulose) (HPC)
[10] = dose: 50.0 mg/kg/injection, schedule: Q01DX009 (ip), vehicle: saline
[11] = dose: 100.0 mg/kg/injection, schedule: Q01DX009 (ip), vehicle: saline
[12] = dose: 100.0 mg/kg/injection, schedule: Q04DX003 (ip), vehicle: saline
[13] = dose: 200.0 mg/kg/injection, schedule: Q04DX003 (ip), vehicle: saline
[14] = dose: 400.0 mg/kg/injection, schedule: Q04DX003 (ip), vehicle: saline
[15] = dose: 100.0 mg/kg/injection, schedule: Q04DX002 (ip), vehicle: Klucel (hydroxypropylcellulose) (HPC)
[16] = dose: 100.0 mg/kg/injection, schedule: Q04DX003 (ip), vehicle: Klucel (hydroxypropylcellulose) (HPC)
[17] = dose: 200.0 mg/kg/injection, schedule: Q04DX002 (ip), vehicle: Klucel (hydroxypropylcellulose) (HPC)
[18] = dose: 200.0 mg/kg/injection, schedule: Q04DX003 (ip), vehicle: Klucel (hydroxypropylcellulose) (HPC)
[19] = dose: 400.0 mg/kg/injection, schedule: Q04DX002 (ip), vehicle: Klucel (hydroxypropylcellulose) (HPC)
[20] = dose: 400.0 mg/kg/injection, schedule: Q04DX003 (ip), vehicle: Klucel (hydroxypropylcellulose) (HPC)

O=C(O)/C=C/C(=O)N1Cc2cc3ccccc3nc2C1
T/C (dose: 10.0 mg/kg/injection, schedule: Q04DX003 (ip), vehicle: saline): 99 % of control | T/C (dose: 20.0 mg/kg/injection, schedule: Q04DX003 (ip), vehicle: saline): 99 % of control | T/C (dose: 40.0 mg/kg/injection, schedule: Q04DX003 (ip), vehicle: saline): 105 % of control | T/C (dose: 80.0 mg/kg/injection, schedule: Q04DX003 (ip), vehicle: saline): 100 % of control | T/C (dose: 160.0 mg/kg/injection, schedule: Q04DX003 (ip), vehicle: saline): 96 % of control

CON(C)c1nc(Cl)nc(Cl)n1
T/C (dose: 50.0 mg/kg/injection, schedule: Q01DX001 (ip), vehicle: saline): 105 % of control | T/C [1]: 103 % of control | T/C [2]: 100 % of control | T/C [3]: 95 % of control | T/C [4]: 94 % of control | T/C [5]: 94 % of control | T/C [6]: 98 % of control | T/C [7]: 98 % of control | T/C [8]: 102 % of control | T/C [9]: 96 % of control

C[C@]12CCC(=O)C=C1CC[C@H]1[C@@H]3CC[C@](O)(C(=O)CO)[C@@]3(C)CC(=O)[C@@]12SC(N)=O
T/C (dose: 100.0 mg/kg/injection, schedule: Q01DX001 (ip), vehicle: steriod suspending solution): 92 % of control | T/C (dose: 200.0 mg/kg/injection, schedule: Q01DX001 (ip), vehicle: steriod suspending solution): 92 % of control | T/C (dose: 400.0 mg/kg/injection, schedule: Q01DX001 (ip), vehicle: steriod suspending solution): 104 % of control

Cc1nc2ccccc2nc1N1CCCC1
T/C (dose: 111.0 mg/kg/injection, schedule: Q01DX Z (ip), vehicle: methylcellulose (MC)): 101 % of control | T/C (dose: 166.0 mg/kg/injection, schedule: Q01DX Z (ip), vehicle: methylcellulose (MC)): 92 % of control | T/C (dose: 250.0 mg/kg/injection, schedule: Q01DX Z (ip), vehicle: methylcellulose (MC)): 114 % of control

CC1(C)N=C(N)N=C(N)N1c1ccc(OCCNC(=O)Nc2ccc(S(=O)(=O)F)cc2)c(Cl)c1
T/C (dose: 25.0 mg/kg/injection, schedule: Q01DX009 (ip), vehicle: saline): 102 % of control | T/C [10]: 105 % of control | T/C [11]: 113 % of control

CC(C)(O)C(O)C(=O)O (stereo not drawn)
T/C [11]: 92 % of control | T/C [12]: 106 % of control | T/C (dose: 200.0 mg/kg/injection, schedule: Q01DX009 (ip), vehicle: saline): 89 % of control | T/C [13]: 104 % of control | T/C [14]: 97 % of control

COc1ncnc2c1c(C#N)cn2C1OC(CO)C(O)C1O (stereo not drawn)
T/C (dose: 6.25 mg/kg/injection, schedule: Q01DX009 (ip), vehicle: saline): 124 % of control | T/C [10]: 119 % of control | T/C [11]: 169 % of control | T/C (dose: 200.0 mg/kg/injection, schedule: Q01DX005 (ip), vehicle: saline): 93 % of control

CSc1nc2ccc(S(=O)(=O)O)cc2s1
T/C (dose: 50.0 mg/kg/injection, schedule: Q01DX009 (ip), vehicle: Klucel (hydroxypropylcellulose) (HPC)): 104 % of control | T/C [3]: 96 % of control | T/C [6]: 97 % of control

Cc1coc2ccccc2c1=O
T/C (dose: 50.0 mg/kg/injection, schedule: Q04DX002 (ip), vehicle: gum acacia): 114 % of control | T/C (dose: 100.0 mg/kg/injection, schedule: Q04DX002 (ip), vehicle: gum acacia): 117 % of control | T/C (dose: 200.0 mg/kg/injection, schedule: Q04DX002 (ip), vehicle: gum acacia): 107 % of control

Cc1cc(C)nc(NC(=O)Nc2cc(Cl)ccc2C)c1
T/C [1]: 90 % of control | T/C [3]: 92 % of control | T/C [15]: 100 % of control | T/C [16]: 93 % of control | T/C [4]: 100 % of control | T/C [6]: 94 % of control and 91 % of control | T/C [17]: 96 % of control | T/C [18]: 92 % of control | T/C [7]: 95 % of control | T/C [9]: 94 % of control and 96 % of control | T/C [19]: 100 % of control | T/C [20]: 109 % of control

O=C(c1ccc(O)cc1)c1ccc(O)cc1O
T/C (dose: 100.0 mg/kg/injection, schedule: Q01DX009 (ip), vehicle: saline sonified): 93 % of control | T/C (dose: 200.0 mg/kg/injection, schedule: Q01DX009 (ip), vehicle: saline sonified): 98 % of control | T/C (dose: 400.0 mg/kg/injection, schedule: Q01DX009 (ip), vehicle: saline sonified): 98 % of control

S=C(S)N1CCC(CCCC2CCN(C(=S)S)CC2)CC1
T/C (dose: 100.0 mg/kg/injection, schedule: Q01DX009 (ip), vehicle: saline with Tween-80): 88 % of control | T/C (dose: 100.0 mg/kg/injection, schedule: Q04DX003 (ip), vehicle: saline with Tween-80): 100 % of control | T/C (dose: 200.0 mg/kg/injection, schedule: Q01DX009 (ip), vehicle: saline with Tween-80): 88 % of control | T/C (dose: 200.0 mg/kg/injection, schedule: Q04DX003 (ip), vehicle: saline with Tween-80): 89 % of control | T/C (dose: 400.0 mg/kg/injection, schedule: Q04DX003 (ip), vehicle: saline with Tween-80): 105 % of control

CC1(C)N=C(N)N=C(N)N1c1cccc(Oc2ccc(N)cc2)c1
T/C (dose: 25.0 mg/kg/injection, schedule: Q04DX003 (ip), vehicle: Klucel (hydroxypropylcellulose) (HPC)): 103 % of control | T/C (dose: 50.0 mg/kg/injection, schedule: Q04DX003 (ip), vehicle: Klucel (hydroxypropylcellulose) (HPC)): 110 % of control

COC(=O)C(=O)CC(=O)c1ccc([N+](=O)[O-])cc1
T/C [15]: 95 % of control | T/C [17]: 95 % of control | T/C [19]: 103 % of control

CC1(C)CN1C1=C(NC(=O)CCl)C(=O)c2ccccc2C1=O
T/C [16]: 87 % of control | T/C [18]: 94 % of control | T/C [20]: 91 % of control

O=C1NCCO1
T/C (dose: 50.0 mg/kg/injection, schedule: Q04DX003 (ip), vehicle: saline): 97 % of control | T/C [3]: 103 % of control | T/C [16]: 105 % of control | T/C [12]: 102 % of control and 106 % of control | T/C [6]: 105 % of control | T/C [18]: 103 % of control | T/C [13]: 95 % of control and 92 % of control and 103 % of control | T/C [9]: 103 % of control | T/C [20]: 103 % of control | T/C [14]: 103 % of control and 105 % of control

O=C1NC(=O)C2(CCN(c3ccccc3)CC2)C(=O)N1
T/C [2]: 94 % of control | T/C [5]: 96 % of control | T/C [8]: 96 % of control

CCCOP(=S)(NCCCOC)OCCC
T/C (dose: 50.0 mg/kg/injection, schedule: Q01DX009 (ip), vehicle: other): 94 % of control | T/C (dose: 50.0 mg/kg/injection, schedule: Q04DX003 (ip), vehicle: other): 95 % of control | T/C (dose: 100.0 mg/kg/injection, schedule: Q01DX001 (ip), vehicle: other): 96 % of control | T/C (dose: 100.0 mg/kg/injection, schedule: Q01DX009 (ip), vehicle: other): 100 % of control | T/C (dose: 100.0 mg/kg/injection, schedule: Q04DX003 (ip), vehicle: other): 95 % of control | T/C (dose: 200.0 mg/kg/injection, schedule: Q01DX001 (ip), vehicle: other): 102 % of control | T/C (dose: 200.0 mg/kg/injection, schedule: Q01DX009 (ip), vehicle: other): 94 % of control | T/C (dose: 200.0 mg/kg/injection, schedule: Q04DX003 (ip), vehicle: other): 97 % of control

COc1ccccc1N=Nc1c(O)n(-c2ccc(C)cc2)c(=S)n(-c2ccc(C)cc2)c1=O
T/C (dose: 50.0 mg/kg/injection, schedule: Q01DX001 (ip), vehicle: Klucel (hydroxypropylcellulose) (HPC)): 86 % of control | T/C [1]: 89 % of control | T/C [4]: 102 % of control

CC(C)C1OCCO1
T/C (dose: 50.0 mg/kg/injection, schedule: Q01DX009 (ip), vehicle: acetone): 92 % of control | T/C (dose: 100.0 mg/kg/injection, schedule: Q01DX009 (ip), vehicle: acetone): 101 % of control | T/C (dose: 200.0 mg/kg/injection, schedule: Q01DX009 (ip), vehicle: acetone): 95 % of control

CCC[CH2][Sn]1([CH2]CCC)[O]CC2(CCCCC2)C[O]1
T/C (dose: 2.5 mg/kg/injection, schedule: Q04DX002 (ip), vehicle: saline + alcohol): 94 % of control and 102 % of control | T/C (dose: 5.0 mg/kg/injection, schedule: Q04DX002 (ip), vehicle: saline + alcohol): 105 % of control and 118 % of control | T/C (dose: 10.0 mg/kg/injection, schedule: Q04DX002 (ip), vehicle: saline + alcohol): 105 % of control | T/C (dose: 20.0 mg/kg/injection, schedule: Q04DX002 (ip), vehicle: saline + alcohol): 93 % of control and 105 % of control
